{"source": "paper PMC2978097", "about": "“Inhibiting α-Synuclein Oligomerization by Stable Cell-Penetrating β-Synuclein Fragments Recovers Phenotype of Parkinson's Disease Model Flies” (PLoS ONE, 2010)", "key": {"α-syn monomers": {"biological_target": "T1, α-syn monomers (Homo sapiens, UniProt P37840)", "T1 construct": "made in house; host or cells: E. coli BL21 (pT7-7)", "assay": "Fluorescence anisotropy titration with α-syn monomers", "type": "binding", "settings": "fluorescent anisotropy, increasing amounts of α-syn monomers titrated into the peptide solution; Figure S1; read-out: affinity constant (Kd) towards α-syn monomers", "method": "To evaluate the binding of the peptides to α-syn, increasing amounts of α-syn monomers were titrated into a solution of the modified β-syn 36 peptide and anisotropy was determined (Figure S1). The affinity constant was determined to be ∼1 µM.\nSupplementary file pone.0013863.s001.tif: Figure S1 The affinity of the modified β-syn 36 containing tryptophan instead of tyrosine towardsα-syn monomers was examined using fluorescent anisotropy. Kd = 1 µM. (0.02 MB TIF) Click here for additional data file."}, "[1]": {"assay": "In vitro peptide stability in mouse brain homogenate", "type": "in vitro ADME", "settings": "20% peptide solution (1 mM in Tris pH 7.6) and 80% of 10% ICR mouse brain homogenate (0.5% Triton X-100), 37°C, two hours; C18 HPLC, UV 280 nm peak area vs sample in Tris buffer; Figure 5", "method": "Peptides were dissolved to give a 1 mM solution in […] (pH 7.6). 120 µl of the peptide solution was diluted into a 10% freshly-made homogenate of mouse brain excluding the cerebellum (in 1× Tris buffer and 0.5% Triton X-100). A mixture containing 20% peptide solution and 80% mouse brain homogenate was incubated at 37°C with delicate shaking for two hours. The enzyme reaction was stopped by adding 0.1 M HCl solution, followed by denaturation of the protein using methanol and incubation at 20°C for one hour. The precipitated proteins were centrifuged at 29,000×g for 20 minutes at 4°C and the supernatant containing the peptide was concentrated under vacuum and separated using a C18 HPLC column. The area of the peak (UV absorbance at 280 nm) corresponding to the intact peptide was compared with an equivalent sample incubated in […].\nFigure 5 Serum stability of β-syn 36 peptides. Brain extract of wild type ICR white mouse was incubated with the peptides β-syn 36 and retro-inverso β-syn 36 for two hours and loaded on a C18 column for serum stability analysis. (A) Spectra of the β-syn 36 peptide (blue) and β-syn 36 peptide with brain extract (red). […] (C) Quantification of the area under the peak. The area of the peptide in time ‘0’ was determined as 100%. […]"}, "PC12 cells": {"test_system": "PC12 cells", "assay": "Toxicity towards cultured PC12 cells", "type": "cell-based", "settings": "concentrations up to 1 mM in the growing medium, twenty four hours; data not shown", "description": "Our best inhibitor candidate was the β-syn 36 peptide which inhibited both the soluble and insoluble fibrillar aggregates of α-syn."}}, "note": "Where a SMILES comes first, the peptide text is derived from it. Where no end group is shown, it is not given here. [ ]: non-standard residue; d: D form.", "data": [{"compound": "CC(C)C[C@@H](NC(=O)[C@H](NC(=O)CN)C(C)C)C(=O)N[C@H](Cc1c[nH]c2ccccc12)C(=O)N[C@@H](C(=O)NCC(=O)N[C@H](CO)C(=O)N[C@H](CCCCN)C(=O)N[C@@H](C(=O)N[C@H](CCCNC(=N)N)C(=O)O)[C@H](C)O)C(C)C", "note": "[Y39W β-syn 36D] (H-G[dV][dL][dW][dV]G[dS][dK][dT][dR]-OH)", "values": [{"measurement": "Kd", "setting": "α-syn monomers", "result": 1000, "unit": "nM"}]}, {"compound": "CC(C)C[C@@H](NC(=O)[C@@H](Cc1ccc(O)cc1)NC(=O)[C@H](NC(=O)CNC(=O)[C@@H](CO)NC(=O)[C@@H](CCCCN)NC(=O)[C@H](NC(=O)[C@H](N)CCCNC(=N)N)[C@H](C)O)C(C)C)C(=O)N[C@@H](C(=O)NCC(=O)O)C(C)C", "note": "[retro-inverso β-syn 36] (H-[dR][dT][dK][dS]G[dV][dY][dL][dV]G-OH)", "values": [{"measurement": "stability in mouse brain homogenate (called serum stability)", "setting": "[1]", "result": "more stable than the unmodified β-syn 36"}]}, {"compound": "GVLYVGSKTR [β-syn 36]", "values": [{"measurement": "toxicity towards cultured cells (PC12)", "setting": "PC12 cells", "result": "no toxicity"}]}]}
